Test results published in the supplement of paper PMC13207355.

Key:
Settings in all cases: exposure time: 72 h
E31 [1] = patient-derived glioblastoma stem cells of proneural subtype; assay: surviving fraction (nuclei count normalised to DMSO); higher = more cells surviving (less toxic)
FT3469 [2] = normal neural stem cell line; assay: as above
E34 [3] = patient-derived glioblastoma stem cells of proneural subtype; assay: as above
E21 [4] = patient-derived glioblastoma stem cells of mesenchymal subtype; assay: as above
E28 [5] = patient-derived glioblastoma stem cells of classical subtype; assay: as above
E57 [6] = patient-derived glioblastoma stem cells of mesenchymal subtype; assay: as above
E13 [7] = patient-derived glioblastoma stem cells of classical subtype; assay: as above
E31 [8] = assay: phenotypic distance (Euclidean, principal components) from DMSO controls (arbitrary units); higher = stronger morphological change
FT3469 [9] = assay: as above
E34 [10] = assay: as above
E21 [11] = assay: as above
E28 [12] = assay: as above
E57 [13] = assay: as above
E13 [14] = assay: as above
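For phenotypic distance (Euclidean, principal components) from DMSO controls in this document: cell Painting imaging in 384-well plates, CellProfiler features reduced to at least 20 principal components, Euclidean distance versus same-plate DMSO vehicle wells (0.1% v/v), median over six images per well.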
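For surviving fraction (nuclei count normalised to DMSO) in this document: nuclei counted by high-content imaging of Hoechst-stained cells in laminin-coated 384-well plates, relative to 0.1% DMSO vehicle wells, with staurosporine as cell-death control.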

CC(C)C[C@H](NC(=O)[C@H](Cc1ccccc1)NC(=O)c1cnccn1)B(O)O [Bortezomib]
Settings | phenotypic distance | surviving fraction
E13 [7], 4.11523 nM | – | 0.00185
E13 [7], 12.34567901 nM | – | 0.551
E13 [7], 37.037 nM | – | 0.000925
E13 [7], 111.1111111 nM | – | 0.0074
E13 [7], 333.333 nM | – | 0.000925
E13 [7], 1000 nM | – | 0.00185
E13 [7], 3000 nM | – | 0
E13 [14], 4.11523 nM | 16.9 | –
E13 [14], 12.34567901 nM | 2.3 | –
E13 [14], 37.037 nM | 17.1 | –
E13 [14], 111.1111111 nM | 12 | –
E13 [14], 333.333 nM | 14.2 | –
E13 [14], 1000 nM | 13.5 | –
E13 [14], 3000 nM | 21.9 | –
E21 [4], 4.11523 nM | – | 0.00595
E21 [4], 12.34567901 nM | – | 0.00198
E21 [4], 37.037 nM | – | 0.000991
E21 [4], 111.1111111 nM | – | 0.000991
E21 [4], 333.333 nM | – | 0.00297
E21 [4], 1000 nM | – | 0.00198
E21 [4], 3000 nM | – | 0
E21 [11], 4.11523 nM | 10.7 | –
E21 [11], 12.34567901 nM | 17.6 | –
E21 [11], 37.037 nM | 18.1 | –
E21 [11], 111.1111111 nM | 23.9 | –
E21 [11], 333.333 nM | 14.3 | –
E21 [11], 1000 nM | 18.7 | –
E21 [11], 3000 nM | 23.7 | –
E28 [5], 4.11523 nM | – | 0.0619
E28 [5], 12.34567901 nM | – | 0.0854
E28 [5], 37.037 nM | – | 0.0576
E28 [5], 111.1111111 nM | – | 0.0896
E28 [5], 333.333 nM | – | 0.0747
E28 [5], 1000 nM | – | 0.0576
E28 [5], 3000 nM | – | 0.105
E28 [12], 4.11523 nM | 5.69 | –
E28 [12], 12.34567901 nM | 4.88 | –
E28 [12], 37.037 nM | 6.77 | –
E28 [12], 111.1111111 nM | 5.66 | –
E28 [12], 333.333 nM | 5.33 | –
E28 [12], 1000 nM | 6.17 | –
E28 [12], 3000 nM | 5.47 | –
E31 [1], 4.11523 nM | – | 0.00325
E31 [1], 12.34567901 nM | – | 0.0114
E31 [1], 37.037 nM | – | 0.00651
E31 [1], 111.1111111 nM | – | 0
E31 [1], 333.333 nM | – | 0.00163
E31 [1], 1000 nM | – | 0
E31 [1], 3000 nM | – | 0.00163
E31 [8], 4.11523 nM | 8.53 | –
E31 [8], 12.34567901 nM | 10.1 | –
E31 [8], 37.037 nM | 10.2 | –
E31 [8], 111.1111111 nM | 21.4 | –
E31 [8], 333.333 nM | 11.7 | –
E31 [8], 1000 nM | 17.1 | –
E31 [8], 3000 nM | 12.6 | –
E34 [3], 4.11523 nM | – | 0.0594
E34 [3], 12.34567901 nM | – | 0.0507
E34 [3], 37.037 nM | – | 0.0385
E34 [3], 111.1111111 nM | – | 0.0332
E34 [3], 333.333 nM | – | 0.035
E34 [3], 1000 nM | – | 0.0227
E34 [3], 3000 nM | – | 0.0385
E34 [10], 4.11523 nM | 10.2 | –
E34 [10], 12.34567901 nM | 9.58 | –
E34 [10], 37.037 nM | 13.4 | –
E34 [10], 111.1111111 nM | 13.5 | –
E34 [10], 333.333 nM | 13.9 | –
E34 [10], 1000 nM | 12.6 | –
E34 [10], 3000 nM | 12.6 | –
E57 [6], 4.11523 nM | – | 0.00967
E57 [6], 12.34567901 nM | – | 0.00153
E57 [6], 37.037 nM | – | 0.00662
E57 [6], 111.1111111 nM | – | 0.00611
E57 [6], 333.333 nM | – | 0.00255
E57 [6], 1000 nM | – | 0.00305
E57 [6], 3000 nM | – | 0.00611
E57 [13], 4.11523 nM | 10.4 | –
E57 [13], 12.34567901 nM | 15.6 | –
E57 [13], 37.037 nM | 11.2 | –
E57 [13], 111.1111111 nM | 10.8 | –
E57 [13], 333.333 nM | 12.5 | –
E57 [13], 1000 nM | 12.2 | –
E57 [13], 3000 nM | 9.88 | –
FT3469 [2], 4.11523 nM | – | 0.207
FT3469 [2], 12.34567901 nM | – | 0.193
FT3469 [2], 37.037 nM | – | 0.233
FT3469 [2], 111.1111111 nM | – | 0.161
FT3469 [2], 333.333 nM | – | 0.158
FT3469 [2], 1000 nM | – | 0.121
FT3469 [2], 3000 nM | – | 0.104
FT3469 [9], 4.11523 nM | 5.9 | –
FT3469 [9], 12.34567901 nM | 7.61 | –
FT3469 [9], 37.037 nM | 8.16 | –
FT3469 [9], 111.1111111 nM | 8 | –
FT3469 [9], 333.333 nM | 7.22 | –
FT3469 [9], 1000 nM | 8.26 | –
FT3469 [9], 3000 nM | 6 | –

Nc1ccc(-c2ccc3ncc4ccc(=O)n(-c5cccc(C(F)(F)F)c5)c4c3c2)cn1 [Torin2]
Settings | phenotypic distance | surviving fraction
E13 [7], 4.1 nM | – | 0.816
E13 [7], 12.3 nM | – | 0.728
E13 [7], 37 nM | – | 0.628
E13 [7], 111.1 nM | – | 0.537
E13 [7], 333.3 nM | – | 0.467
E13 [7], 1000 nM | – | 0.434
E13 [7], 3000 nM | – | 0.387
E13 [14], 4.1 nM | 1.33 | –
E13 [14], 12.3 nM | 2.1 | –
E13 [14], 37 nM | 2.69 | –
E13 [14], 111.1 nM | 3.25 | –
E13 [14], 333.3 nM | 4.2 | –
E13 [14], 1000 nM | 4.27 | –
E13 [14], 3000 nM | 4.72 | –
E21 [4], 4.1 nM | – | 0.939
E21 [4], 12.3 nM | – | 0.836
E21 [4], 37 nM | – | 0.924
E21 [4], 111.1 nM | – | 0.595
E21 [4], 333.3 nM | – | 0.326
E21 [4], 1000 nM | – | 0.31
E21 [4], 3000 nM | – | 0.252
E21 [11], 4.1 nM | 1.71 | –
E21 [11], 12.3 nM | 2.07 | –
E21 [11], 37 nM | 2.44 | –
E21 [11], 111.1 nM | 3.36 | –
E21 [11], 333.3 nM | 6.2 | –
E21 [11], 1000 nM | 4.67 | –
E21 [11], 3000 nM | 5.09 | –
E28 [5], 4.1 nM | – | 0.829
E28 [5], 12.3 nM | – | 0.687
E28 [5], 37 nM | – | 0.705
E28 [5], 111.1 nM | – | 0.526
E28 [5], 333.3 nM | – | 0.534
E28 [5], 1000 nM | – | 0.417
E28 [5], 3000 nM | – | 0.324
E28 [12], 4.1 nM | 1.23 | –
E28 [12], 12.3 nM | 2.35 | –
E28 [12], 37 nM | 2.78 | –
E28 [12], 111.1 nM | 3.06 | –
E28 [12], 333.3 nM | 2.87 | –
E28 [12], 1000 nM | 3.67 | –
E28 [12], 3000 nM | 3.52 | –
E31 [1], 4.1 nM | – | 0.743
E31 [1], 12.3 nM | – | 0.669
E31 [1], 37 nM | – | 0.612
E31 [1], 111.1 nM | – | 0.386
E31 [1], 333.3 nM | – | 0.26
E31 [1], 1000 nM | – | 0.234
E31 [1], 3000 nM | – | 0.102
E31 [8], 4.1 nM | 1.91 | –
E31 [8], 12.3 nM | 2.08 | –
E31 [8], 37 nM | 3.12 | –
E31 [8], 111.1 nM | 4.26 | –
E31 [8], 333.3 nM | 5.33 | –
E31 [8], 1000 nM | 5.33 | –
E31 [8], 3000 nM | 6.15 | –
E34 [3], 4.1 nM | – | 0.986
E34 [3], 12.3 nM | – | 0.84
E34 [3], 37 nM | – | 0.809
E34 [3], 111.1 nM | – | 0.796
E34 [3], 333.3 nM | – | 0.623
E34 [3], 1000 nM | – | 0.471
E34 [3], 3000 nM | – | 0.424
E34 [10], 4.1 nM | 1.56 | –
E34 [10], 12.3 nM | 2.42 | –
E34 [10], 37 nM | 2.76 | –
E34 [10], 111.1 nM | 3.31 | –
E34 [10], 333.3 nM | 3.09 | –
E34 [10], 1000 nM | 2.85 | –
E34 [10], 3000 nM | 3.68 | –
E57 [6], 4.1 nM | – | 0.892
E57 [6], 12.3 nM | – | 0.74
E57 [6], 37 nM | – | 0.659
E57 [6], 111.1 nM | – | 0.548
E57 [6], 333.3 nM | – | 0.424
E57 [6], 1000 nM | – | 0.302
E57 [6], 3000 nM | – | 0.148
E57 [13], 4.1 nM | 1.19 | –
E57 [13], 12.3 nM | 1.65 | –
E57 [13], 37 nM | 2.17 | –
E57 [13], 111.1 nM | 3.47 | –
E57 [13], 333.3 nM | 4.27 | –
E57 [13], 1000 nM | 5.35 | –
E57 [13], 3000 nM | 8.06 | –
FT3469 [2], 4.1 nM | – | 0.978
FT3469 [2], 12.3 nM | – | 0.925
FT3469 [2], 37 nM | – | 0.73
FT3469 [2], 111.1 nM | – | 0.685
FT3469 [2], 333.3 nM | – | 0.769
FT3469 [2], 1000 nM | – | 0.685
FT3469 [2], 3000 nM | – | 0.527
FT3469 [9], 4.1 nM | 1.78 | –
FT3469 [9], 12.3 nM | 2 | –
FT3469 [9], 37 nM | 2.85 | –
FT3469 [9], 111.1 nM | 2.71 | –
FT3469 [9], 333.3 nM | 3.04 | –
FT3469 [9], 1000 nM | 2.81 | –
FT3469 [9], 3000 nM | 3.65 | –
